Measured values reported in publication PMC7038073, “Substituted Piperazines as Novel Potential Radioprotective Agents” (Molecules, 2020).

Columns and labels:
[1] = WST-1 cytotoxicity test, Jurkat; assay type: cell-based; settings: human, Jurkat cells, read-out: relative viability (%) compared to untreated control
Method: (§1) In this study, the cytotoxic effects of nine new compounds (2, 3, 4, 5, 6, 7, 8, 9, 10) were tested on 10 human cell lines (nine cancer and one non-cancer cell line). The cell lines were treated with each compound at concentrations of 10 µM and 100 µM for 48 h. The proliferation capacity of the treated cells was determined by WST-1 test and compared against the proliferation rate of the untreated control cells (100%).
(§2) The cell lines Jurkat, MOLT-4, A2780, A549, HT-29, PANC-1, HeLa, MCF-7, SAOS-2, and MRC-5 (all purchased from Sigma Aldrich, Czech Republic) were included in this study. All cell lines were maintained according to the provider’s guidelines, and plated and treated in 96-well plates (500 to 30 × 10^3 cells per well). The tested compounds 2, 3, 4, 5, 6, 7, 8, 9, and 10 were dissolved in 0.1% DMSO and kept in 10 mM stock solutions. Before use, the stock solution was diluted in culture media at ratios of 1:100 and 1:1000. The studied cell lines were treated with the compounds 2, 3, 4, 5, 6, 7, 8, 9, and 10 at concentrations of 10 and 100 µM for 48 h. Control cells were tested in culture media with and without DMSO (0.1%). The cells were also treated with 1 µM doxorubicin as a cytotoxicity control.
(§3) The WST-1 (2-(4-iodophenyl)-3-(4-nitrophenyl)-5-(2,4-disulfophenyl)-2H-tetrazolium, monosodium salt) test (Roche, Mannheim, Germany) was used according to the manufacturer’s protocol to determine cell viability in all 10 cell lines 48 h after treatment with the tested compounds. The cells were analyzed in a Tecan Infinite M200 spectrometer (Tecan Group, Männedorf, Switzerland) at 440 nm.

[2] = WST-1 cytotoxicity test, MOLT-4; assay type: cell-based; settings: human, MOLT-4 cells, read-out: relative viability (%) compared to untreated control; for viability at 48 h, 10 µM: MOLT-4, 10 µM
Method: as §1, §2, §3

[3] = WST-1 cytotoxicity test, A549; assay type: cell-based; settings: human, A549 cells, read-out: relative viability (%) compared to untreated control; for viability at 48 h, 10 µM: A549, 10 µM
Method: as §1, §2, §3

[4] = WST-1 cytotoxicity test, HT-29; assay type: cell-based; settings: human, HT-29 cells, read-out: relative viability (%) compared to untreated control; for viability at 48 h, 10 µM: HT-29, 10 µM
Method: as §1, §2, §3

[5] = WST-1 cytotoxicity test, PANC-1; assay type: cell-based; settings: human, PANC-1 cells, read-out: relative viability (%) compared to untreated control; for viability at 48 h, 10 µM: PANC-1, 10 µM
Method: as §1, §2, §3

[6] = WST-1 cytotoxicity test, A2780; assay type: cell-based; settings: human, A2780 cells, read-out: relative viability (%) compared to untreated control; for viability at 48 h, 10 µM: A2780, 10 µM
Method: as §1, §2, §3

[7] = WST-1 cytotoxicity test, HeLa; assay type: cell-based; settings: human, HeLa cells, read-out: relative viability (%) compared to untreated control
Method: as §1, §2, §3

[8] = WST-1 cytotoxicity test, MCF-7; assay type: cell-based; settings: human, MCF-7 cells, read-out: relative viability (%) compared to untreated control; for viability at 48 h, 10 µM: MCF-7, 10 µM
Method: as §1, §2, §3

[9] = WST-1 cytotoxicity test, SAOS-2; assay type: cell-based; settings: human, SAOS-2 cells, read-out: relative viability (%) compared to untreated control; for viability at 48 h, 10 µM: SAOS-2, 10 µM
Method: as §1, §2, §3

[10] = WST-1 cytotoxicity test, MRC-5; assay type: cell-based; settings: human, MRC-5 cells, read-out: relative viability (%) compared to untreated control; for viability at 48 h, 10 µM: MRC-5, 10 µM
Method: as §1, §2, §3

[11] = WST-1 cytotoxicity test, statements over all cell lines; assay type: cell-based, human; settings: human, 10 µM, across all the 10 cell lines tested, read-out: percentage of viable cells
Method: as §1, §2, §3

[12] = tested on: 10 human cell lines (nine cancer and one non-cancer cell line); test: as above; assay type: cell-based; settings: 48 h
Method: as §1, §2, §3

A549 cells = test: MTT assay, IC50 and MTC; settings: for MTC (maximum tolerated concentration): 24 h of treatment; for IC50: Homo sapiens, A549, 24 h, read-out: IC50 ± SEM
Method: In further experiments, MTT (3-(4,5-di-methylthiazol-2-yl)-2,5-diphenyltetrazolium bromide) assay was employed to evaluate the toxicological indexes of the newly synthesized compounds, including IC50 (half-maximal inhibitory concentration) and MTC (maximum tolerated concentration).
IC50 and MTC were determined through MTT assays. The MTT assay was performed according to [35]. In brief, the A549 cell line was plated in 96-well plates (100 µL, 9 × 10^3 cells per well) and incubated overnight. The tested compounds were prepared in phosphate buffer saline (PBS; Sigma–Aldrich) and serially diluted in DMEM (Dulbecco’s Modified Eagle Medium). An untreated control was included as a viability standard in each plate. After 24 h of treatment, the viability of A549 cells was measured at 570 nm. All experiments were performed in triplicate. The GraphPad Prism statistics software v5.04 (GraphPad Software Inc., San Diego, CA, USA) was used to calculate the IC50 values for parameter nonlinear regression. Values are expressed as mean ± SEM.

[13] = 48 h, WST-1, mean ± SD of three experiments
[14] = 100 µM, 48 h, WST-1, mean ± SD of three experiments
[15] = doxorubicin 1 µM cytotoxicity control, WST-1, mean ± SD

In the case of `COc1ccc2nc3c(c(NCCN4CCNCC4)c2c1)CCCC3.Cl.Cl.Cl` [Compound 2, 7-Methoxy-N-(2-(piperazin-1-yl)ethyl)-1,2,3,4-tetrahydroacridin-9-amine trihydrochloride], the viability at 48 h, 10 µM [1, 13] is reported as 31 ± 14%, the viability at 48 h, 10 µM [2, 13] is reported as 0% and the viability at 48 h, 10 µM [3, 13] is reported as 27 ± 3%. For the same molecule, the viability at 48 h, 10 µM [4, 13] was 28 ± 6%, the viability at 48 h, 10 µM [5, 13] was 39 ± 2% and the viability at 48 h, 10 µM [6, 13] was 44 ± 9%. It also gave a viability at 48 h, 10 µM [7, 13] of 25 ± 1%, a viability at 48 h, 10 µM [8, 13] of 15 ± 1% and a viability at 48 h, 10 µM [9, 13] of 28 ± 2%. The viability at 48 h, 10 µM [10, 13] was 23 ± 2%, the viability at 48 h, 10 µM [11] was less than 44% and the “cytotoxic effect (in words)” value ([12]; 10 µM, tested cell lines) was “highly cytotoxic”. For the same molecule, the melting point was 172 to 173 °C, the “MTC (maximum tolerated concentration)” value (A549 cells; A549 cells, MTT) was 0.002 mM and the IC50 (A549 cells) was 40 ± 2 µM.

Work on `COc1ccc2nc3c(c(NCCN4CCN(CCO)CC4)c2c1)CCCC3.Cl.Cl.Cl` [Compound 3, 7-Methoxy-N-{2-[4-(2-hydroxyethyl)piperazin-1-yl]ethyl}-1,2,3,4-tetrahydroacridin-9-amine trihydrochloride] yielded a viability at 48 h, 10 µM [1, 13] of 95 ± 9%, a viability at 48 h, 100 µM [1, 14] of 12 ± 5% and a viability at 48 h, 10 µM [2, 13] of 81 ± 13%. For the same molecule, the viability at 48 h, 100 µM ([2]; MOLT-4, 100 µM, 48 h, WST-1, mean ± SD of three experiments) was 2%, the viability at 48 h, 10 µM [3, 13] was 94 ± 15% and the viability at 48 h, 100 µM ([3]; A549, 100 µM, 48 h, WST-1, mean ± SD of three experiments) was 13 ± 2%. The viability at 48 h, 10 µM [4, 13] was 85 ± 11%, the viability at 48 h, 100 µM ([4]; HT-29, 100 µM, 48 h, WST-1, mean ± SD of three experiments) was 14 ± 5% and the viability at 48 h, 10 µM [5, 13] was 78 ± 6%. For the same molecule, the viability at 48 h, 100 µM ([5]; PANC-1, 100 µM, 48 h, WST-1, mean ± SD of three experiments) was 30 ± 4%, the viability at 48 h, 10 µM [6, 13] was 84 ± 7% and the viability at 48 h, 100 µM ([6]; A2780, 100 µM, 48 h, WST-1, mean ± SD of three experiments) was 20 ± 5%. The viability at 48 h, 10 µM [7, 13] was 104 ± 13%, the viability at 48 h, 100 µM [7, 14] was 11 ± 3% and the viability at 48 h, 10 µM [8, 13] was 84 ± 9%. It also gave a viability at 48 h, 100 µM ([8]; MCF-7, 100 µM, 48 h, WST-1, mean ± SD of three experiments) of 10 ± 2%, a viability at 48 h, 10 µM [9, 13] of 80 ± 4% and a viability at 48 h, 100 µM ([9]; SAOS-2, 100 µM, 48 h, WST-1, mean ± SD of three experiments) of 10 ± 2%. The viability at 48 h, 10 µM [10, 13] was 84 ± 2%, the viability at 48 h, 100 µM ([10]; MRC-5, 100 µM, 48 h, WST-1, mean ± SD of three experiments) was 9 ± 6% and the “decrease of cell viability” value ([12]; 100 µM, all the tested cell lines) was no less than 70%. For the same molecule, the “cytotoxic effect (in words)” value ([12]; 100 µM, studied cell lines) was “highly cytotoxic”, the melting point was 157 to 158 °C and the “IC50 fold higher than that for compound 2” value (A549 cells; A549 cells, MTT) was 3.5 fold. For the same molecule, the “MTC (maximum tolerated concentration)” value (A549 cells; A549 cells, MTT) was 0.01 mM and the IC50 (A549 cells) was 140 ± 10 µM.

For `COc1cccc2c1C(=O)c1c(O)c3c(c(O)c1C2=O)C[C@@](O)(C(=O)CO)C[C@@H]3O[C@H]1C[C@H](N)[C@H](O)[C@H](C)O1` [DOX, doxorubicin, reference compound], the viability at 48 h, 1 µM [1, 15] was 2%, the viability at 48 h, 1 µM ([2]; MOLT-4, doxorubicin 1 µM cytotoxicity control, WST-1, mean ± SD) was 1% and the viability at 48 h, 1 µM ([3]; A549, doxorubicin 1 µM cytotoxicity control, WST-1, mean ± SD) was 42 ± 11%. It also gave a viability at 48 h, 1 µM ([4]; HT-29, doxorubicin 1 µM cytotoxicity control, WST-1, mean ± SD) of 55 ± 18%, a viability at 48 h, 1 µM ([5]; PANC-1, doxorubicin 1 µM cytotoxicity control, WST-1, mean ± SD) of 78 ± 7% and a viability at 48 h, 1 µM ([6]; A2780, doxorubicin 1 µM cytotoxicity control, WST-1, mean ± SD) of 8 ± 4%. The viability at 48 h, 1 µM [7, 15] was 76 ± 12%, the viability at 48 h, 1 µM ([8]; MCF-7, doxorubicin 1 µM cytotoxicity control, WST-1, mean ± SD) was 32 ± 3% and the viability at 48 h, 1 µM ([9]; SAOS-2, doxorubicin 1 µM cytotoxicity control, WST-1, mean ± SD) was 22 ± 4%. The viability at 48 h, 1 µM ([10]; MRC-5, doxorubicin 1 µM cytotoxicity control, WST-1, mean ± SD) was 22 ± 2%.
